26 compounds from ChEMBL document CHEMBL1136333, “A novel series of histone deacetylase inhibitors incorporating hetero aromatic ring systems as connection units” (Bioorg Med Chem Lett, 2003) can be followed below.

Test [1] has as its target Histone deacetylase (HDAC1 and HDAC2) (Homo sapiens, UniProt Q13547+Q92769). The experiment in a line: Inhibitory activity against histone deacetylase (HDAC1 and HDAC2) isolated from K562 erythroleukemia cells. The class given is cell-based.
A further test in a line: cells. The test is classed as functional. As to conditions: Homo sapiens, MDA435.
In test [2] the test system is HT-1080. The experiment in a line: Antiproliferative activity against human HT1080 fibrosarcoma cell line at a dose of 50 uM. The class given is functional.
Test [3] has as its system HT-1080. The experiment in a line: Antiproliferative activity against human HT1080 fibrosarcoma cell line. The test is classed as functional, cell-based.
A short description of test [4]: Antiproliferative activity against human MDA-435 breast carcinoma cell line at a dose of 50 uM. The class given is functional.

For orientation: IC50 means the midpoint of a concentration-inhibition curve. A higher IC50 goes with weaker potency in that assay. In general, inhibition refers to the percentage by which the read-out fell short of the control. For `O=C(CCCCCCc1nc(-c2ccc(OC(F)(F)F)cc2)cs1)NO`, the IC50 in test [1] amounted to 74 nM; in “cells”, 2040 nM. The compound further had an inhibition at 50 µM in the test on HT-1080 [2] of 100%.

Compound `O=C(CCCCCCCc1ccccc1)NO` gave an IC50 in test [1] of 560 nM.

As to `COc1ccc(-c2cnc(CCCCCCC(=O)NO)o2)cc1`, the values for the IC50 (in test [1]; in the test on HT-1080 [3]; in “cells”) were 2.1 nM, 0.31 µM and 2520 nM, respectively.

As for `O=C(CCCCCCc1cnc(-c2ccc(Br)cc2)o1)NO`, the results for the IC50 (in test [1]; in the test with HT-1080 [3]) were 4.4 nM and 27 µM, respectively. Also, in test [4], the inhibition at 50 µM was found to be 97%.

For the compound `COc1ccc(-c2csc(CCCCCCC(=O)NO)n2)cc1`, the IC50 in test [1] came to 2.5 nM; in the test with HT-1080 [3] it was 3.63 µM; in “cells” it was 2970 nM.

In test [1], `O=C(CCCCCCOc1ccccc1)NO` yielded an IC50 of 330 nM.

On to `O=C(CCCCCCc1cnc(-c2ccc(OC(F)(F)F)cc2)o1)NO`, for which the 50% inhibitory concentration (IC50) in test [1] turned out to be 89 nM; in the test on HT-1080 [3], 5.14 µM; in the test “cells” it was 20400 nM.

As for `O=C(CCCCCCc1ncc(-c2ccc(-c3ccc(Cl)cc3)cc2)o1)NO`, the 50% inhibitory concentration (IC50) came out at 6.8 nM in test [1], 0.66 µM in the test on HT-1080 [3] and 950 nM in “cells”.

For the compound `O=C(CCCCCCc1nc(-c2ccccc2)cs1)NO`, the IC50 in test [1] is 19 nM; with HT-1080 [3] it was 5.07 µM. This compound also registered an inhibition at 50 µM in test [4] of 99.7%.

As to `O=C(CCCCCCc1nc(-c2cccc(Br)c2)cs1)NO`, the IC50 in test [1] was 5.8 nM; in the test on HT-1080 [3], 10.1 µM. 50 µM produced 98.6% inhibition in test [4].

For `O=C(CCCCCCc1ccc(-c2ccccc2)cc1)NO`, the half-maximal inhibitory concentration (IC50) in test [1] was found to be 58 nM.

With `O=C(CCCCCCc1nc(-c2ccc(C(F)(F)F)cc2)cs1)NO`, the IC50 was determined as 42 nM in test [1], 2.39 µM with HT-1080 [3] and 850 nM in the test “cells”.

For `O=C(CCCCCCc1nc(-c2ccc(-c3ccccc3)cc2)cs1)NO`, the values for the IC50 (in test [1]; in the test on HT-1080 [3]; in the test “cells”) were 11 nM, 1.32 µM and 1950 nM, respectively.

For the compound `O=C(CCCCCCc1cnc(-c2ccccc2)o1)NO`, in test [1], the half-inhibitory concentration (IC50) was 13 nM. The results for the inhibition at 50 µM (in test [4]; in the test with HT-1080 [2]) were 6.12% and 23%, respectively.

In turn, `CNC(=O)C(=O)CCCCCCc1cnc(-c2ccc(Br)cc2)o1` returned an IC50 in test [1] of 30 nM.

`CNC(=O)C(=O)CCCCCCc1cnc(-c2ccccc2)s1` had an IC50 in test [1] of 47 nM.

Regarding `O=C(CCCCCCc1ncc(-c2ccccc2)o1)NO`, the results for the IC50 (in test [1]; in the test on HT-1080 [3]; in “cells”) were 9.8 nM, 8.41 µM and 2200 nM, respectively.

`O=C(CCCCCCc1cnc(-c2ccc(F)cc2)o1)NO`: the figures for the half-inhibitory concentration (IC50) (in test [1]; in the test “cells”) were 23 nM and 7940 nM, respectively. Moreover, at 50 µM the inhibition in the test on HT-1080 [2] was 76%.

Compound `CNC(=O)C(=O)CCCCCCc1cnc(-c2ccccc2)o1` gave an IC50 in test [1] of 21 nM.

As to `O=C(CCCCCCc1ncc(-c2ccc(Br)cc2)o1)NO`, the results for the IC50 (in test [1]; in the test with HT-1080 [3]; in the test “cells”) were 2.7 nM, 7.7 µM and 6700 nM, respectively.

On to `O=C(CCCCCCc1cnc(-c2ccc(-c3ccccc3)cc2)o1)NO`, for which the half-inhibitory concentration (IC50) in test [1] is 12 nM; with HT-1080 [3], 15.3 µM; in “cells”, 98700 nM.

Take `CNC(=O)C(=O)CCCCCCc1ncc(-c2ccc(OC)cc2)o1`: the IC50 in test [1] worked out at 11 nM.

On to `O=C(CCCCCCc1nc(-c2ccc(Br)cc2)cs1)NO`, for which the values for the IC50 (in test [1]; with HT-1080 [3]; in “cells”) were 8.5 nM, 5.68 µM and 8110 nM, respectively.

As for `O=C(CCCCCCc1nc(-c2ccc3ccccc3c2)cs1)NO`, the IC50 came to 4.3 nM in test [1], 2.39 µM with HT-1080 [3] and 850 nM in the test “cells”.

For `COc1cccc(OC)c1-c1csc(CCCCCCC(=O)NO)n1`, the values for the IC50 (in test [1]; in the test on HT-1080 [3]; in the test “cells”) were 4.3 nM, 2 µM and 2910 nM, respectively.

Regarding `O=C(CCCCCCNC(=O)c1ccccc1)NO`, in test [1], the IC50 came out at 1010 nM.
